Source: article PMC9317316, “Synthesis and Evaluation of Some New 4H-Pyran Derivatives as Antioxidant, Antibacterial and Anti-HCT-116 Cells of CRC, with Molecular Docking, Antiproliferative, Apoptotic and ADME Investigations” (Pharmaceuticals, 2022)
Values joined by “and” are separate entries in the source; they are usually repeats but may differ in a detail not shown here. Equal entries are not always repeated. Where two headings read alike, the source gives them in different places.

Columns and labels:
B. subtilis (ATCC 6633) [1] = experiment: Antibacterial agar diffusion method (inhibition zone); type: cell-based
Description: (§1) The results for the in vitro antibacterial properties of the synthesized compounds against five Gram-positive and four Gram-negative human-pathogenic strains, which were assessed by both the agar diffusion method (based on inhibition zone (IZ)) and the broth dilution bioassay (for the determination of the half-maximal inhibitory concentration (IC50) values), using ampicillin as the reference antibiotic drug, are shown in Table 2 and Table 3.
(§2) The antibacterial activity of all synthesized compounds was evaluated against the Gram-negative strains E. coli (ATCC 25966), K. pneumonia (ATCC 700603), P. aeruginosa (ATCC 27853) and S. enteric (ATCC 43972) and against the Gram-positive strains B. cereus (ATCC 14579), B. subtilis (ATCC 6633), E. faecalis (ATCC 29122), S. aureus (ATCC 25923) and S. epidermidis (ATCC 14990), using the agar diffusion method through measuring the appearance of the inhibition zone on the surface of the top agar, as reported by Berghe and Vlietinck. Ampicillin (10 µg/well) was used as the positive reference standard. Bacterial viability was also investigated by determining the colony-forming ability (CFU) of bacteria incubated at different time intervals without or with appropriate amounts of the compound, which were mixed with 2 ×10^7 CFU/mL in sterile BHI and incubated under shaking for 60 min at 37 °C. Samples were serially diluted into sterile BHI, streaked onto media agar plates and incubated for 24 h at 37 °C. The antibacterial potency of the tested compounds was expressed as the residual number of CFUs with reference to the initial inoculums. The results presented as the half-maximal (50 %) inhibitory concentration (IC50) values are the means of three different measurements.

E. coli (ATCC 25966) [2] = experiment: as above; type: cell-based; conditions: E. coil (ATCC 25966)
Description: as §1, §2

E. faecalis (ATCC 29122) [3] = experiment: as above; type: cell-based
Description: as §1, §2

B. cereus (ATCC 14579) [4] = experiment: as above; type: cell-based
Description: as §1, §2

S. aureus (ATCC 25923) [5] = experiment: as above; type: cell-based
Description: as §1, §2

S. enteric (ATCC 43972) [6] = experiment: as above; type: cell-based
Description: as §1, §2

[7] = tested on: P. aeruginosa (ATCC 27853); experiment: as above; type: cell-based
Description: as §1, §2

[8] = tested on: K. pneumonia (ATCC 700603); experiment: as above; type: cell-based
Description: as §1, §2

[9] = tested on: S. epidermidis (ATCC 14990); experiment: as above; type: cell-based
Description: as §1, §2

B. subtilis (ATCC 6633) [10] = experiment: Antibacterial viability (CFU) assay, IC50; type: cell-based
Description: as §1, §2

E. coli (ATCC 25966) [11] = experiment: Antibacterial viability (CFU) assay, IC50; type: cell-based; conditions: Escherichia coli, ATCC25966; E. coil (ATCC 25966)
Description: as §1, §2

E. faecalis (ATCC 29122) [12] = experiment: Antibacterial viability (CFU) assay, IC50; type: cell-based; conditions: Enterococcus faecalis, ATCC29122
Description: as §1, §2

B. cereus (ATCC 14579) [13] = experiment: Antibacterial viability (CFU) assay, IC50; type: cell-based; conditions: Bacillus cereus, ATCC14579
Description: as §1, §2

S. aureus (ATCC 25923) [14] = experiment: Antibacterial viability (CFU) assay, IC50; type: cell-based; conditions: Staphylococcus aureus, ATCC25923
Description: as §1, §2

S. enteric (ATCC 43972) [15] = experiment: Antibacterial viability (CFU) assay, IC50; type: cell-based
Description: as §1, §2

[16] = tested on: P. aeruginosa (ATCC 27853); experiment: Antibacterial viability (CFU) assay, IC50; type: cell-based; conditions: Pseudomonas aeruginosa, ATCC27853
Description: as §1, §2

[17] = tested on: K. pneumonia (ATCC 700603); experiment: Antibacterial viability (CFU) assay, IC50; type: cell-based; conditions: Klebsiella pneumoniae, ATCC700603
Description: as §1, §2

[18] = tested on: S. epidermidis (ATCC 14990); experiment: Antibacterial viability (CFU) assay, IC50; type: cell-based; conditions: Staphylococcus epidermidis, ATCC14990
Description: as §1, §2

[19] = DPPH radical scavenging assay; conditions: for IC50: 0.03 to 1 mg/mL, 1 h, mean ± SD, triplicate, read-out: IC50 (mM) for DPPH Scavenging Potency
Description: The IC50 values for DPPH were calculated from the plot of the scavenging effect against the compound concentration.
The compounds’ capacities to scavenge the stable radical 1,1 diphenyl-2-picrylhydrazyl (DPPH) formed in solution by donation of a hydrogen atom or an electron was investigated according to the method described by Bersuder and coworkers. Due to the fact that the initial blue/purple solution of diphenyl picrylhydrazine changes to yellow in the presence of compounds with a capacity to scavenge DPPH free radicals, this reaction is used as a measure of a compound’s ability to scavenge any free radical. Briefly, a 0.5 mL volume of DPPH ethanolic solution was mixed with an equal volume of each sample concentration (0.03 to 1 mg/mL), shaken strongly and incubated at room temperature for 1 h in darkness. The absorbance of the residual DPPH radicals was measured at 519 nm and compared to that of the control (without the tested compound). DPPH radical scavenging was calculated using the following formula: Scavenging effect (%) = (1 − Acompound/AControl) × 100, where Acompound and Acontrol are the absorbances of the tested compound and of the control, respectively. A plot of the scavenging effect (%) versus the sample concentration was also performed to determine the compound concentration providing 50% inhibition (IC50).

HCT-116 cells = experiment: Cell viability (cytotoxicity, LDH release) assay; type: cell-based; conditions: Homo sapiens, 24 h; for viability at 100 µg/mL: read-out: percent of viable cells
Description: The synthesized compounds were also examined at four concentrations (10, 25, 50 and 100 µg/mL) for their cytotoxic effects on human colorectal cancer HCT-116 cells after their incubation together for 24 h.
Cytotoxic potency was examined for a human colon cancer cell line HCT-116 (American Type Culture Collection; Manassas, VA, USA) using various amounts of each compound (10, 25, 50 and 100 µg). Samples were diluted in Dulbecco’s Modified Eagle’s Medium, consisting of 10% Fetal Bovine Serum, and added to cells grown and cultured for 24 h in a 5% CO2-humidified incubator at 37 °C. Then, the activity of lactate dehydrogenase released from damaged cells was determined in the collected supernatant aliquots using an ELISA endpoint assay (Benchmark Plus, Bio-Rad, Hercules, CA, USA). As positive and negative controls, respectively, 0.1% Triton X-100 in the assay medium and the assay medium only were used. Cell viability, shown as mean values ± SDs (n = 3), was expressed as a relative percentage of the OD values determined at 600 nm in compound-treated cells and the control.

[20] = Reducing power assay (FRAC, Fe3+ to Fe2+); conditions: 0-1 mg/mL, absorbance 700 nm
Description: Secondly, FRAC was determined over the concentration range of 0.0−1 mg/mL via monitoring Fe^3+−Fe^2+ transformation in the presence of the studied compounds and the reference antioxidant BHT to estimate the values of efficient concentration (EC50), expressed in mM.
The reducing power of the studied compounds was assessed according to Oyaizu’s method. Briefly, different concentrations (ranging from 0 to 1 mg/mL) of each tested compound were first mixed with 1 mL of 0.2 M sodium phosphate buffer (pH 6.6) and 1 mL of 1% potassium ferricyanide (K3Fe(CN)6) and incubated at 50 °C for 20 min. After the addition of 1.25 mL of 20% trichloroacetic acid (TCA), the mixture was centrifuged for 10 min at 3000 rpm and the upper layer solution was then mixed with 0.5 mL of 0.1% fresh ferric chloride and an equal volume of deionized water. Finally, the absorption of the resulting mixture was measured at 700 nm using a UV spectrophotometer against distilled water as the blank, while butylated hydroxytoluene (BHT) was used as a positive control. The sample ferric reducing power capability was indicated by increased absorbance.

[21] = Bacillus subtilis, ATCC6633, B. subtilis (ATCC 6633)

Compound	IZ (mm) (B. subtilis (ATCC 6633) [1])	IZ (mm) (E. coli (ATCC 25966) [2])	IZ (mm) (E. faecalis (ATCC 29122) [3])	IZ (mm) (B. cereus (ATCC 14579) [4])	IZ (mm) (S. aureus (ATCC 25923) [5])	IZ (mm) [7] [mm]	IZ (mm) [8] [mm]	IZ (mm) [9]	IC50 (B. subtilis (ATCC 6633) [10]; [21]) [µM]	IC50 (E. coli (ATCC 25966) [11]) [µM]	IC50 (E. faecalis (ATCC 29122) [12]) [µM]	IC50 (B. cereus (ATCC 14579) [13]) [µM]	IC50 (S. aureus (ATCC 25923) [14]) [µM]	IC50 (S. enteric (ATCC 43972) [15]; read-out: IC50) [µM]	IC50 [16] [µM]	IC50 [17] [µM]	IC50 [18] [µM]	IC50 [19] [mM]	DPPH Radical Scavenging Effenciency (%) at 1 mg/mL [19]	EC50 [20] [µM]	also measured
CC1(C)S[C@@H]2[C@H](NC(=O)[C@H](N)c3ccccc3)C(=O)N2[C@H]1C(=O)O [Ampicillin, reference compound]	25.50 ± 0.71 mm	23.5 ± 0.71	24.50 ± 0.71 mm	23.50 ± 0.71 mm	21.50 ± 0.71 mm	21.5 ± 0.7	21.0 ± 1.4	22.50 ± 0.71 mm	37.2 ± 1.43	58 ± 4.87	36.5 ± 3.03	25.8 ± 0.57	38.6 ± 2	14.9 ± 0.34	41.5 ± 1.72	32.9 ± 2.29	50.1 ± 3.43	–	–	–	IZ (mm) (B. subtilis (ATCC 6633) [1]; listed as ampicillin): 25.50 mm; IZ (mm) (E. faecalis (ATCC 29122) [3]; listed as ampicillin): 24.50 mm; IZ (mm) (B. cereus (ATCC 14579) [4]; listed as ampicillin): 23.50 mm; IZ (mm) (S. aureus (ATCC 25923) [5]; listed as ampicillin): 21.50 mm; IZ (mm) (S. enteric (ATCC 43972) [6]): 19.5 ± 0.7 mm; IZ (mm) ([9]; listed as ampicillin): 22.50 mm
COc1ccc(C2C(C#N)=C(N)OC(C)=C2C(=O)OCc2ccccc2)cc1 (stereo not shown) [4j, 6-Amino-5-cyano-4-(4-methoxy-phenyl)-2-methyl-4H-pyran-3-carboxylic acid benzyl ester]	21.50 mm and 21.50 ± 0.71 mm	10.5 ± 0.71	23.20 mm and 23.20 ± 0.57 mm	24.50 mm and 24.50 ± 0.71 mm	25.25 mm and 25.25 ± 1.06 mm	14.5 ± 0.7	12.0 ± 1.4	26.65 mm and 26.65 ± 0.92 mm	23.6 to 36.8	57.1 ± 0.8	28.2 ± 1.51	27.6 ± 1.51	33.3 ± 1.7	51.8 ± 2.92	49.7 ± 4.78	48.4 ± 3.99	33.3 ± 1.7	0.194	88.00% and 88.00 ± 1.41%	74 ± 4	IC50 (B. subtilis (ATCC 6633) [10]; B. subtilis (ATCC 6633)): 23.6 ± 0.37 µM; IC50 (S. enteric (ATCC 43972) [15]): 49.7 µM; viability at 100 µg/mL (HCT-116 cells): 94%; melting point: 170 to 172 °C
CCOC(=O)C1=C(C)OC(N)=C(C#N)C1c1cccc(OC)c1[N+](=O)[O-] (stereo not shown) [4b, 6-Amino-5-cyano-4-(3-methoxy-2-nitro-phenyl)-2-methyl-4H-pyran-3-carboxylic acid ethyl ester]	19.50 ± 0.71 mm	2.5 ± 0.71	15.50 ± 0.71 mm	16.50 ± 0.71 mm	20.50 ± 0.71 mm	2.5 ± 0.7	1.5 ± 0.7	23.50 mm and 23.50 ± 0.71 mm	49.1 ± 1.39	100 ± 3.9	56.8 ± 1.59	43.1 ± 1.98	50.2 ± 1.39	118 ± 3.34	84 ± 5.01	99.1 ± 2.5	32.4 ± 1.39	2.56 ± 0.117	23.25 ± 1.06%	1200 ± 79	viability at 100 µg/mL (HCT-116 cells): 11 to 32.5%; IC50 (HCT-116 cells; read-out: Mean IC50 (µM) of cytotoxicity): 102 ± 8.83 µM; IC50 (HCT-116 cells; read-out: Mean IC50 (µg/mL) of cytotoxicity): 36.5 ± 3.18 µg/mL; melting point: 220 to 222 °C
CCOC(=O)C1=C(C)OC(N)=C(C#N)C1c1cccc(O)c1Cl (stereo not shown) [4g, 6-Amino-4-(2-chloro-3-hydroxy-phenyl)-5-cyano-2-methyl-4H-pyran-3-carboxylic acid ethyl ester]	28.00 mm and 28.00 ± 1.41 mm	11.0 ± 1.41	24.50 mm and 24.50 ± 0.71 mm	29.00 mm and 29.00 ± 1.41 mm	27.50 mm and 27.50 ± 0.71 mm	13.5 ± 0.7	11.5 ± 0.7	29.75 mm and 29.75 ± 0.35 mm	25.7 ± 1.7	61.8 ± 5.38	31.8 ± 1.49	29.4 ± 1.49	27.8 ± 1.25	53 ± 3.29	54.1 ± 4.48	61.8 ± 2.99	30.3 ± 1.49	0.329 ± 0.042	90.50% and 90.50 ± 2.12%	72 ± 4	IC50 (S. enteric (ATCC 43972) [15]): 54.1 µM; viability at 100 µg/mL (HCT-116 cells): 86%; melting point: 212 to 213 °C
Cc1cc(C(C)(C)C)c(O)c(C(C)(C)C)c1 [BHT, butylated hydroxytoluene, reference compound]	–	–	–	–	–	–	–	–	–	–	–	–	–	–	–	–	–	0.245 ± 0.027	95.30% and 95.30 ± 0.42%	89 ± 3	–
